The target of this assay is T1, LPO purified from bovine milk (Bos taurus, UniProt P80025).
T1 construct: from tissue; host or cells: fresh bovine milk
The assay is described as follows: LPO inhibition assay (ABTS oxidation by H2O2, absorbance at 412 nm; Lineweaver–Burk plots). The settings on record: for IC50: from activity (%)-[inhibitor] regression graphs, ABTS substrate; for Inhibition Type: with respect to ABTS substrate, from Lineweaver–Burk plots. The assay is classed as biochemical. The protocol:
LPO activities were determined by the procedure of Shindler and Bardsley with slight modification. This method is based on the oxidation of chromogenic substrate 2,2′-azino-bis(3-ethylbenzothiazoline-6-sulfonic acid) (ABTS) by hydrogen peroxide (H2O2), which results in a product which had absorbance at 412 nm.
The effects of secondary sulfonamide derivatives (4a–8h) on LPO purified from fresh bovine milk by affinity chromatography technique were previously determined. In our study, LPO activity was measured in the presence of different concentrations of secondary sulfanilamide derivatives (4a–8h). A control sample without secondary sulfonamide was taken as 100%. An activity (%)-[Secondary sulfonamide] plot was drawn. For the determination of the inhibition constant (Ki) values, three different secondary sulfonamide derivative (4a–8h) concentrations were used. Additionally, ABTS was used as a substrate at five different concentrations. Lineweaver–Burk plots (1/V-1/[ABTS]) were obtained for secondary sulfonamide; the Ki and the inhibition type were calculated from these plots. The data obtained were analysed by t-test and the results are given as Means ± SD.

The mark [1] stands for this setting: LPO purified from bovine milk, Lineweaver–Burk plots, three inhibitor and five ABTS concentrations, Means ± SD.
Where [2] appears, read: bovine milk LPO, values restated in text in nM.

The record followed here is PMC6152724, “Secondary Sulfonamides as Effective Lactoperoxidase Inhibitors” (Molecules : A Journal of Synthetic Chemistry and Natural …, 2017).

In the case of `Nc1ccc(S(=O)(=O)Nc2nccs2)cc1` [4a, Sulfathiazole, reference compound], the “Inhibition Type” value is “Non-competitive”. The compound further gave an inhibition constant (Ki) under setting [1] of 38400 ± 6060 nM. Besides, the IC50 (LPO purified from bovine milk) was 231 µM.
Taken in the same sequence, the figures for `Nc1ccc(S(=O)(=O)Nc2ncccn2)cc1` [4b, Sulfadiazine, reference compound] were “Non-competitive”, 90700 ± 2520 nM and 92.2 µM.
Taken in the same sequence, the figures for `Cc1cc(C)nc(NS(=O)(=O)c2ccc(N)cc2)n1` [4c, Sulfamethazine, reference compound] were “Non-competitive”, 198000 ± 24500 nM and 346 µM.
For `Nc1ccc(S(=O)(=O)Nc2ccccn2)cc1` [4d, Sulfapyridine, reference compound], the “Inhibition Type” value is “Competitive”. The compound further had a Ki under setting [1] of 65000 ± 3610 nM. Half-maximal inhibition (LPO purified from bovine milk) (IC50) required 227 µM.
Taken in the same sequence, the figures for `Cc1noc(NS(=O)(=O)c2ccc(N)cc2)c1C` [4e, Sulfisoxazole, reference compound] were “Non-competitive”, 183000 ± 34100 nM and 222 µM.
Taken in the same sequence, the figures for `Cc1nnc(NS(=O)(=O)c2ccc(N)cc2)s1` [4f, Sulfamethizole, reference compound] were “Non-competitive”, 21200 ± 5660 nM and 115 µM.
The like results for `Cc1ccnc(NS(=O)(=O)c2ccc(N)cc2)n1` [4g, Sulfamerazine, reference compound] were, in that order, “Non-competitive”, 20500 ± 2140 nM and 18.7 µM.
`Nc1ccc(S(N)(=O)=O)cc1` [4h, Sulfanilamide, reference compound]: the “Inhibition Type” value is recorded as “Competitive”. Under setting [1], this compound registered a Ki of 35700 ± 4880 nM. The same compound displayed an IC50 (LPO purified from bovine milk) of 8.48 µM.
Taken in the same sequence, the figures for `CC(=O)Oc1ccc(C(=O)Nc2ccc(S(=O)(=O)Nc3nccs3)cc2)cc1` [5a, N-(sulfathiazole)-p-acetoxybenzamide] were “Non-competitive”, 56100 ± 23600 nM and 99 µM.
Take `CC(=O)Oc1ccc(C(=O)Nc2ccc(S(=O)(=O)Nc3ncccn3)cc2)cc1` [5b, N-(sulfadiazine)-p-acetoxybenzamide]: the “Inhibition Type” value is recorded as “Non-competitive”. Under setting [1], this compound came in with an inhibition constant Ki of 26 ± 4 nM. The compound also gave a concentration for half-maximal inhibition (IC50) (LPO purified from bovine milk) of 0.015 µM. Under setting [2], this compound had a Ki of 260 nM.
Take `CC(=O)Oc1ccc(C(=O)Nc2ccc(S(=O)(=O)Nc3nc(C)cc(C)n3)cc2)cc1` [5c, N-(sulfamethazine)-p-acetoxybenzamide]: the “Inhibition Type” value is “Competitive”. Under setting [1], this compound yielded a Ki of 8 ± 3 nM. The compound also came in with an IC50 (LPO purified from bovine milk) of 0.01 µM. Also, affinity under setting [2] was put at a Ki of 80 nM.
Turning to `CC(=O)Oc1ccc(C(=O)Nc2ccc(S(=O)(=O)Nc3ccccn3)cc2)cc1` [5d, N-(sulfapyridine)-p-acetoxybenzamide], the “Inhibition Type” value is recorded as “Competitive”. The compound further showed a Ki under setting [1] of 49100 ± 20000 nM. Further, for the setting “LPO purified from bovine milk”, the IC50 was 10 µM.
Taken in the same sequence, the figures for `CC(=O)Oc1ccc(C(=O)Nc2ccc(S(=O)(=O)Nc3onc(C)c3C)cc2)cc1` [5e, N-(sulfisoxazole)-p-acetoxybenzamide] were “Competitive”, 934 ± 357 nM and 3.03 µM.
Take `CC(=O)Oc1ccc(C(=O)Nc2ccc(S(=O)(=O)Nc3nnc(C)s3)cc2)cc1` [5f, N-(sulfamethizole)-p-acetoxybenzamide]: the “Inhibition Type” value is reported as “Non-competitive”. In addition, the Ki under setting [1] was found to be 324 ± 115 nM. This compound displayed a half-maximal inhibitory concentration (IC50) (LPO purified from bovine milk) of 0.238 µM.
Taken in the same sequence, the figures for `CC(=O)Oc1ccc(C(=O)Nc2ccc(S(=O)(=O)Nc3nccc(C)n3)cc2)cc1` [5g, N-(sulfamerazine)-p-acetoxybenzamide] were “Competitive”, 13400 ± 6190 nM and 3.94 µM.
Taken in the same sequence, the figures for `CC(=O)Oc1ccc(C(=O)Nc2ccc(S(N)(=O)=O)cc2)cc1` [5h, N-(sulfanilamide)-p-acetoxybenzamide] were “Non-competitive”, 2290 ± 1020 nM and 3.05 µM.
